Literature values, collected in patent US20080081052A1, “Topical compositions containing solubilized allantoin and related methods” (priority 2006, published 2008).

Conditions: expressed in g/100 g water @ 25 degree C; no solubilization enhancer

NC(=O)NC1NC(=O)NC1=O (stereo not shown) [allantoin, (2,5-dioxo-4-imidazolidinyl) urea]
solubility of allantoin in water: 0.45%
